What was measured:
Assay type in all cases: cell-based
Proteus vulgaris = assay: MIC against Gram-negative bacteria: Proteus vulgaris; settings: 5×10^5 CFU/mL
Outline: (§1)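 MIC = lowest concentration of recombinant protein showing no growth. Test proteins: purified human-derived EGF domain proteins, two-fold dilution series, three wells per concentration; inoculum 5×10^5 CFU/mL in LB; incubation 37° C with shaking at 175 rpm.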

Moraxella catarrhalis = assay: MIC against Gram-negative bacteria: Moraxella catarrhalis; settings: 5×10^5 CFU/mL
Outline: as §1

Serratia marcescens = assay: MIC against Gram-negative bacteria: Serratia marcescens; settings: 5×10^5 CFU/mL
Outline: as §1

Proteus mirabilis = assay: MIC against Gram-negative bacteria: Proteus mirabilis; settings: 5×10^5 CFU/mL
Outline: as §1

E. coli BL21 = assay: MIC against Gram-negative bacteria: E. coli BL21; settings: 5×10^5 CFU/mL
Outline: as §1

Enterobacter cloacae = assay: MIC against Gram-negative bacteria: Enterobacter cloacae; settings: 5×10^5 CFU/mL
Outline: as §1

Pseudomonas aeruginosa = assay: MIC against Gram-negative bacteria: Pseudomonas aeruginosa; settings: 5×10^5 CFU/mL
Outline: as §1

Aeromonas hydrophila = assay: MIC against Gram-negative bacteria: Aeromonas hydrophila; settings: 5×10^5 CFU/mL
Outline: as §1

E. coli DH5α = assay: Antibacterial activity: MIC and growth curve against E. coli DH5α in 96-well plate; settings: minimal inhibitory concentration against E. coli DH5α; 96-well plate, 5×10^5 CFU/mL, 37° C., judged after 8 h
Outline: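 MIC taken as lowest protein level with no bacterial growth, tracked by A600 every 30 min during 37 °C, 175 rpm culture. Two-fold protein series 50-12.5 μg/mL final, triplicate wells, against 5×10^5 CFU/mL of LB-washed mid-log cells.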

Citrobacter diversus = assay: MIC against Gram-negative bacteria: Citrobacter diversus; settings: 5×10^5 CFU/mL
Outline: as §1

Klebsiella pneumonia = assay: MIC against Gram-negative bacteria: Klebsiella pneumonia; settings: 5×10^5 CFU/mL
Outline: as §1

[1] = Proteus vulgaris, 96-well plate, 37° C., 10 h
[2] = Moraxella catarrhalis, 96-well plate, 37° C., 10 h
[3] = Serratia marcescens, 96-well plate, 37° C., 10 h
[4] = Proteus mirabilis, 96-well plate, 37° C., 10 h
[5] = E. coli BL21, 96-well plate, 37° C., 10 h
[6] = Enterobacter cloacae, 96-well plate, 37° C., 10 h
[7] = Pseudomonas aeruginosa, 96-well plate, 37° C., 10 h
[8] = Aeromonas hydrophila, 96-well plate, 37° C., 10 h
[9] = Citrobacter diversus, 96-well plate, 37° C., 10 h
[10] = Klebsiella pneumonia, 96-well plate, 37° C., 10 h

PRT112 (DINECTDFVDVPCSHFCNNFIGGYFCSCPPEYFLHDDMKNCG; listed as Homo sapiens)
MIC (μg/mL) P. vulgaris (Proteus vulgaris; [1]): 12.5 µg/mL
MIC (μg/mL) M. catarrhalis (Moraxella catarrhalis; [2]): 12.5 µg/mL
MIC (μg/mL) S. marcescens (Serratia marcescens; [3]): 50 µg/mL
MIC (μg/mL) P. mirabilis (Proteus mirabilis; [4]): 50 µg/mL
MIC (μg/mL) E. coli BL21 (E. coli BL21; [5]): 12.5 µg/mL
MIC (μg/mL) E. cloacae (Enterobacter cloacae; [6]): 12.5 µg/mL
MIC (μg/mL) P. aeruginosa (Pseudomonas aeruginosa; [7]): 50 µg/mL
MIC (μg/mL) A. hydrophila (Aeromonas hydrophila; [8]): 12.5 µg/mL
MIC (E. coli DH5α): 50 µg/mL
MIC (μg/mL) C. diversus (Citrobacter diversus; [9]): 12.5 µg/mL
MIC (μg/mL) K. pneumonia (Klebsiella pneumonia; [10]): 12.5 µg/mL

PRT1391 (PLPVCQEQCSGHGTFLLDAGVCSCDPKWTGSDCS; listed as Homo sapiens)
MIC against P. vulgaris (Proteus vulgaris; Proteus vulgaris, 10 h cultivation at 37° C.): 12.5 µg/mL
MIC against M. catarrhalis (Moraxella catarrhalis; Moraxella catarrhalis, 10 h cultivation at 37° C.): 12.5 µg/mL
MIC against S. marcescens (Serratia marcescens; Serratia marcescens, 10 h cultivation at 37° C.): 12.5 µg/mL
MIC against P. mirabilis (Proteus mirabilis; Proteus mirabilis, 10 h cultivation at 37° C.): 12.5 µg/mL
MIC against E. coli BL21 (E. coli BL21; E. coli BL21, 10 h cultivation at 37° C.): 12.5 µg/mL
MIC against E. cloacae (Enterobacter cloacae; Enterobacter cloacae, 10 h cultivation at 37° C.): 12.5 µg/mL
MIC against P. aeruginosa (Pseudomonas aeruginosa; Pseudomonas aeruginosa, 10 h cultivation at 37° C.): 12.5 µg/mL
MIC against A. hydrophila (Aeromonas hydrophila; Aeromonas hydrophila, 10 h cultivation at 37° C.): 12.5 µg/mL
MIC (E. coli DH5α): 12.5 µg/mL
MIC against C. diversus (Citrobacter diversus; Citrobacter diversus, 10 h cultivation at 37° C.): 12.5 µg/mL
MIC against K. pneumonia (Klebsiella pneumonia; Klebsiella pneumonia, 10 h cultivation at 37° C.): 12.5 µg/mL

PRT26 (CDSGPCKNSGFCSERWGSFSCDCPVGFGGKDCQ; listed as Homo sapiens)
MIC (μg/mL) P. vulgaris (Proteus vulgaris; [1]): 12.5 µg/mL
MIC (μg/mL) M. catarrhalis (Moraxella catarrhalis; [2]): 12.5 µg/mL
MIC (μg/mL) S. marcescens (Serratia marcescens; [3]): 25 µg/mL
MIC (μg/mL) P. mirabilis (Proteus mirabilis; [4]): 25 µg/mL
MIC (μg/mL) E. coli BL21 (E. coli BL21; [5]): 12.5 µg/mL
MIC (μg/mL) E. cloacae (Enterobacter cloacae; [6]): 25 µg/mL
MIC (μg/mL) P. aeruginosa (Pseudomonas aeruginosa; [7]): 25 µg/mL
MIC (μg/mL) A. hydrophila (Aeromonas hydrophila; [8]): 12.5 µg/mL
MIC (E. coli DH5α): 25 µg/mL
MIC (μg/mL) C. diversus (Citrobacter diversus; [9]): 25 µg/mL
MIC (μg/mL) K. pneumonia (Klebsiella pneumonia; [10]): 12.5 µg/mL

PRT597 (CDCNRAGTQKPICDPDTGMCRCREGVSGQRCDRCARGHSQEFPTCLQ; listed as Homo sapiens)
MIC P. vulgaris (Proteus vulgaris; 96-well plate, 37° C., 10 h): 25 µg/mL
MIC M. catarrhalis (Moraxella catarrhalis; 96-well plate, 37° C., 10 h): 12.5 µg/mL
MIC S. marcescens (Serratia marcescens; 96-well plate, 37° C., 10 h): 12.5 µg/mL
MIC P. mirabilis (Proteus mirabilis; 96-well plate, 37° C., 10 h): 50 µg/mL
MIC E. coli BL21 (E. coli BL21; 96-well plate, 37° C., 10 h): 12.5 µg/mL
MIC E. cloacae (Enterobacter cloacae; 96-well plate, 37° C., 10 h): 25 µg/mL
MIC P. aeruginosa (Pseudomonas aeruginosa; 96-well plate, 37° C., 10 h): 50 µg/mL
MIC A. hydrophila (Aeromonas hydrophila; 96-well plate, 37° C., 10 h): 50 µg/mL
MIC (E. coli DH5α): 25 µg/mL
MIC C. diversus (Citrobacter diversus; 96-well plate, 37° C., 10 h): 25 µg/mL
MIC K. pneumonia (Klebsiella pneumonia; 96-well plate, 37° C., 10 h): 12.5 µg/mL

PRT64 (PCSSSPCRGGATCALGPHGKNYTCRCPQGYQLDSSQLDCV; listed as Homo sapiens)
MIC (μg/mL) P. vulgaris (Proteus vulgaris; [1]): 25 µg/mL
MIC (μg/mL) M. catarrhalis (Moraxella catarrhalis; [2]): 25 µg/mL
MIC (μg/mL) S. marcescens (Serratia marcescens; [3]): 25 µg/mL
MIC (μg/mL) P. mirabilis (Proteus mirabilis; [4]): 25 µg/mL
MIC (μg/mL) E. coli BL21 (E. coli BL21; [5]): 12.5 µg/mL
MIC (μg/mL) E. cloacae (Enterobacter cloacae; [6]): 12.5 µg/mL
MIC (μg/mL) P. aeruginosa (Pseudomonas aeruginosa; [7]): 50 µg/mL
MIC (μg/mL) A. hydrophila (Aeromonas hydrophila; [8]): 25 µg/mL
MIC (E. coli DH5α): 12.5 µg/mL
MIC (μg/mL) C. diversus (Citrobacter diversus; [9]): 50 µg/mL
MIC (μg/mL) K. pneumonia (Klebsiella pneumonia; [10]): 25 µg/mL

PRT60 (EVDECSRPNRGGCEQRCLNTLGSYKCSCDPGYELAPDKRRCE; listed as Homo sapiens)
MIC (μg/mL) P. vulgaris (Proteus vulgaris; [1]): 12.5 µg/mL
MIC (μg/mL) M. catarrhalis (Moraxella catarrhalis; [2]): 25 µg/mL
MIC (μg/mL) S. marcescens (Serratia marcescens; [3]): 50 µg/mL
MIC (μg/mL) P. mirabilis (Proteus mirabilis; [4]): 50 µg/mL
MIC (μg/mL) E. coli BL21 (E. coli BL21; [5]): 12.5 µg/mL
MIC (μg/mL) E. cloacae (Enterobacter cloacae; [6]): 12.5 µg/mL
MIC (μg/mL) P. aeruginosa (Pseudomonas aeruginosa; [7]): 12.5 µg/mL
MIC (μg/mL) A. hydrophila (Aeromonas hydrophila; [8]): 12.5 µg/mL
MIC (E. coli DH5α): 12.5 µg/mL
MIC (μg/mL) C. diversus (Citrobacter diversus; [9]): 12.5 µg/mL
MIC (μg/mL) K. pneumonia (Klebsiella pneumonia; [10]): 12.5 µg/mL

PRT88 (HRMDQQCPRGWWGSPTCGPCNCDVHKGFDPNCN; listed as Homo sapiens)
MIC (μg/mL) P. vulgaris (Proteus vulgaris; [1]): 25 µg/mL
MIC (μg/mL) M. catarrhalis (Moraxella catarrhalis; [2]): 12.5 µg/mL
MIC (μg/mL) S. marcescens (Serratia marcescens; [3]): 12.5 µg/mL
MIC (μg/mL) P. mirabilis (Proteus mirabilis; [4]): 50 µg/mL
MIC (μg/mL) E. coli BL21 (E. coli BL21; [5]): 12.5 µg/mL
MIC (μg/mL) E. cloacae (Enterobacter cloacae; [6]): 12.5 µg/mL
MIC (μg/mL) P. aeruginosa (Pseudomonas aeruginosa; [7]): 50 µg/mL
MIC (μg/mL) A. hydrophila (Aeromonas hydrophila; [8]): 12.5 µg/mL
MIC (E. coli DH5α): 25 µg/mL
MIC (μg/mL) C. diversus (Citrobacter diversus; [9]): 12.5 µg/mL
MIC (μg/mL) K. pneumonia (Klebsiella pneumonia; [10]): 100 µg/mL
